The values below come from patent US9145411B2, “Substituted amino-pyrimidine derivatives” (Asana Biosciences, LLC, priority 2012, dated 2015).

One experiment addresses T1, PI3Kα (wild-type) (Homo sapiens, UniProt P42336).
T1 construct: made in house; host or cells: SF9 insect cells
As to the kind of experiment: PI3 Kinase TR-FRET assay, PI3Kα (wild-type). The format is biochemical. The note with it: wild-type P110/P85α, 10 μM ATP. How it is done: The ability of compounds of the invention to inhibit PI3K activity was determined in a homogeneous TR-FRET assay using a PI3K assay kit (Millipore, USA; cat #33-016) according to manufacturer's instructions. PI3-Kinases (isoforms α, β, γ and δ) catalyze the phosphorylation of phosphatidylinositol, PIP2 to PIP3 in the presence of ATP and Mg^2+. The PIP3 product is detected by displacement of biotin-PIP3 from an energy transfer complex consisting of Europium labeled anti-GST monoclonal antibody, a GST-tagged PH domain, biotinylated PIP3 and Streptavidin-APC. Excitation of Europium in the complex results in an energy transfer to the APC and a fluorescence emission at 665 nm. The PIP3 product displaces biotin-PIP3 from the complex resulting in a loss of energy transfer and thus a decrease in signal.
To test for the ability of compounds to inhibit the activity of PI3Kα (wild-type), exemplary compounds of formula (I) were dissolved in DMSO and directly distributed into 384-well plates at a volume of 0.5 μL. 14.5 μL of P110/P85α/PIP2 mixture in buffer (obtained from the Millipore kit) containing MgCl2 (40 mM) and DTT (5 mM) was added to compound wells and incubated for 60 minutes at room temperature. P110/P85α was expressed in SF9 insect cells and purified nickel column extraction. Five ng of wild-type P110/P85α was used in the assay. The kinase reaction was started by the addition of ATP. The assay concentrations of both PIP2 and ATP were 10 μM. The reaction mixture was incubated for 30 minutes at room temperature and was terminated by the addition of stop mix and detection mix. Fluorescence was measured at 615 and 665 nm upon excitation at 340 nm in a Victor™ V5 fluorometer (Perkin Elmer, USA). The fluorescence emission ratio at 665 to 615 nm, proportional to the kinase activity, was plotted against the compound concentration to generate dose-response curves and IC50 values were determined using GraphPad Prism® 5 software.

The next experiment concerns the target T2, mTOR kinase (Homo sapiens, UniProt P42345).
T2 construct: purchased Millipore, USA
As to the kind of experiment: mTOR kinase TR-FRET assay. As to conditions: 20 μM ATP. It counts as biochemical. How it is done:
Compound inhibition for mTOR kinase was determined in a homogeneous TR-FRET assay using the Lance® ULight-p70 S6K (Thr 389) peptide (obtained from Perkin-Elmer). The ULight™-labeled synthetic peptide contains the amino acid residues surrounding Thr389 of human p70 S6K. The ULight-p70 S6K peptide is phosphorylated at Thr389 by mTOR. Phosphorylation motif: LGFTYVAP as substrate.
The compound dilution was carried out in 100% DMSO followed by a buffer dilution. The reaction buffer was HEPES (50 mM pH 7.5), EGTA (1 mM), MnCl2 (3 mM). Test compounds at various concentrations were pre-incubated with mTOR (Millipore, USA; 5 ng) for 60 min, and then the Lance® ULight-p70 S6K (Thr 389) peptide (50 nM) was added along with ATP (20 μM). After incubating the reaction mixture for 60 minutes at room temperature, the kinase reaction was terminated by the addition of EDTA (10 mM) followed by the addition of detection mix, i.e., 1 nM Eu-labeled anti-phospho-substrate antibody (Perkin Elmer, USA). The fluorescence emission at […] was measured upon excitation at 340 nm. IC50 values were subsequently determined using a sigmoidal dose-response curve (variable slope) in GraphPad Prism® 5 software.
Compounds of formula (I) caused inhibition of mTOR kinase activity as determined by this assay.
(Time-resolved FRET reads energy transfer from a long-lived donor to a nearby acceptor.)

T2 sequence (P42345 1362-2549 limits assumed): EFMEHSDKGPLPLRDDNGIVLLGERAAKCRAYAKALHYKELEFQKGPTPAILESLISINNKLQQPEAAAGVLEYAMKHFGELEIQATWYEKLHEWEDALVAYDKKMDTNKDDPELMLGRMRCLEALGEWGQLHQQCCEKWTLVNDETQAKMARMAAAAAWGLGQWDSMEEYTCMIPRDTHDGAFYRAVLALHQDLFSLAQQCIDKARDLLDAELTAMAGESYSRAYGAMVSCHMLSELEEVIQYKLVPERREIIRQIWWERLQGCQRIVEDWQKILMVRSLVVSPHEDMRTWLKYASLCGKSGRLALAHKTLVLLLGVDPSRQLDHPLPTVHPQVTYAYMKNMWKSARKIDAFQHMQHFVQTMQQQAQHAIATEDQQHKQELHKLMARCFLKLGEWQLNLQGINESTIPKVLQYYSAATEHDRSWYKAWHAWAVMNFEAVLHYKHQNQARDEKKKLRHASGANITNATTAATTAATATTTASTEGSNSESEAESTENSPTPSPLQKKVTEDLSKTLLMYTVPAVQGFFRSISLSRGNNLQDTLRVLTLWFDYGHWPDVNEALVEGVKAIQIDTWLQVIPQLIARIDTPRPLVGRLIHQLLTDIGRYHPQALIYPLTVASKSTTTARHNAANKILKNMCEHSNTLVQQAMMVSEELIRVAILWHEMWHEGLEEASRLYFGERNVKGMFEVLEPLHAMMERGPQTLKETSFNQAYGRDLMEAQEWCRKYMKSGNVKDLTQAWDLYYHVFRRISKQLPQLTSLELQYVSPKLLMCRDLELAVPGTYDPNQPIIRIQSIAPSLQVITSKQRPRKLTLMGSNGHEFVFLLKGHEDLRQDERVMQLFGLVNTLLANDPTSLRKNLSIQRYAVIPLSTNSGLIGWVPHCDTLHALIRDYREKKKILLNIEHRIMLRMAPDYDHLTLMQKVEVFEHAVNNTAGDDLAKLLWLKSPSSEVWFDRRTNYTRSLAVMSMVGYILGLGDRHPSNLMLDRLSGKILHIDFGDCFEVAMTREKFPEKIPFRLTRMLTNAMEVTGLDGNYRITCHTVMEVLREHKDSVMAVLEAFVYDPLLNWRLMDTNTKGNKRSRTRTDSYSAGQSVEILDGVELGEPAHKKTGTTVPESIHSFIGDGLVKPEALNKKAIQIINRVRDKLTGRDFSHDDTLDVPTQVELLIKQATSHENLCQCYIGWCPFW
T1 sequence (P42336 whole entry, species assumed): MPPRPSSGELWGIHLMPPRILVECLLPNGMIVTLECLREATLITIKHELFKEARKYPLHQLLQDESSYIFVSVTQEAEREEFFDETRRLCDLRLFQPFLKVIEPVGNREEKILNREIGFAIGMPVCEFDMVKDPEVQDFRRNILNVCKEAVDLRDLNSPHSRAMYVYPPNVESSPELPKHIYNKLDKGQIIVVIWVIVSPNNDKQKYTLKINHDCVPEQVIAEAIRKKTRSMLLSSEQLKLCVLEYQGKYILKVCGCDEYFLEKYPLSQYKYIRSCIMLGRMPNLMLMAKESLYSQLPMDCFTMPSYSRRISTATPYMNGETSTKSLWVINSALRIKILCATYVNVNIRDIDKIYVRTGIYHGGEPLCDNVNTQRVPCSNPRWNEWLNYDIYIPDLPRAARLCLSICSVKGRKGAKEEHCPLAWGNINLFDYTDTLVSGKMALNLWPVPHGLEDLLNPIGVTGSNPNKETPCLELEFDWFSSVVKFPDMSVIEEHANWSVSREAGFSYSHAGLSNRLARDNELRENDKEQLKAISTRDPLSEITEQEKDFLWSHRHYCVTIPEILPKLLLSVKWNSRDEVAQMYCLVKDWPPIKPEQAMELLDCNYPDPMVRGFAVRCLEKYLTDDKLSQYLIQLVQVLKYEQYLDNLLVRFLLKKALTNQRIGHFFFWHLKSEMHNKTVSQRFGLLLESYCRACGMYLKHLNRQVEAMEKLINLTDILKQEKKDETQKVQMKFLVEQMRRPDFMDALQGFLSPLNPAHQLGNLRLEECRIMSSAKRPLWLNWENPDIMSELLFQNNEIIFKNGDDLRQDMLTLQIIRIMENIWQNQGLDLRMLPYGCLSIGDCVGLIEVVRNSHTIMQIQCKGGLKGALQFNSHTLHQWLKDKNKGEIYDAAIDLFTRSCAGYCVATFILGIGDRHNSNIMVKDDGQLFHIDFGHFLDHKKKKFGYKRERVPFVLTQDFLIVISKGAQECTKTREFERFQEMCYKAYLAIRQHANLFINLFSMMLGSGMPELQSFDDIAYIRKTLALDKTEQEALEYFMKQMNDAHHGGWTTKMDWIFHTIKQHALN
T1 sequence (P27986 whole entry partner, species assumed): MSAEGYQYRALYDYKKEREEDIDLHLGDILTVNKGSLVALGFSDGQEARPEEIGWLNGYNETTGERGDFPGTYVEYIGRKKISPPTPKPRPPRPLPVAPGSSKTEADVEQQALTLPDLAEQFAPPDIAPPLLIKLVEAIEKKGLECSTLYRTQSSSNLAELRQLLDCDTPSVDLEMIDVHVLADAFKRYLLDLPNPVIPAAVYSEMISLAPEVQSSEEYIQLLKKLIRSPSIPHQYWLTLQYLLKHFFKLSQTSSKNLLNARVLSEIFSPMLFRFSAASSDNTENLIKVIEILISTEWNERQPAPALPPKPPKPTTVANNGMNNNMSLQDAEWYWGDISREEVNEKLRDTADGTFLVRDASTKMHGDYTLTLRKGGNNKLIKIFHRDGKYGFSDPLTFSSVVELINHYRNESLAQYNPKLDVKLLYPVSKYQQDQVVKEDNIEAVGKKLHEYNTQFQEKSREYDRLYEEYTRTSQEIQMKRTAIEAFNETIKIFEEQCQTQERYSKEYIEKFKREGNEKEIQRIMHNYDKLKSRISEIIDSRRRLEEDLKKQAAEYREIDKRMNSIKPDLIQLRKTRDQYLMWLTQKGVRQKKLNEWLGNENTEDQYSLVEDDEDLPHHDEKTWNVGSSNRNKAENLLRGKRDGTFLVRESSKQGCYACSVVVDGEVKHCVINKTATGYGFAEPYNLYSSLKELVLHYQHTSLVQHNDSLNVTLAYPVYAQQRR

Consider `CC(C)(O)C(=O)Nc1cccc(-c2ccc3c(N4CCOCC4)nc(-c4cnc(N)nc4)nc3c2)c1` [Example 6, N-(3-(2-(2-Aminopyrimidin-5-yl)-4-morpholinoquinazolin-7-yl)phenyl)-2-hydroxy-2-methylpropanamide], for which the IC50 against PI3Kα (wild-type) and against mTOR kinase was 50 to 200 nM each time. As to `CC(O)C(=O)N1CCN(Cc2cnc3c(N4CCOCC4)nc(-c4cnc(N)nc4)nc3c2)CC1` (stereo not drawn) [Example 11, 1-(4-((2-(2-aminopyrimidin-5-yl)-4-morpholinopyrido[3,2-d]pyrimidin-7-yl)-methyl)piperazin-1-yl)-2-hydroxypropan-1-one], the IC50 on PI3Kα (wild-type) and at mTOR kinase was 201 to 10000 nM throughout.

In the case of `Nc1ncc(-c2nc(N3CCOCC3)c3ccc(-c4cncnc4)cc3n2)cn1` [Example 12, 5-(4-morpholino-7-(pyrimidin-5-yl)quinazolin-2-yl)pyrimidin-2-amine], the half-inhibitory concentration (IC50) against PI3Kα (wild-type) and at mTOR kinase was 201 to 10000 nM throughout. `Nc1ncc(-c2nc(N3CCOCC3)c3ccc(-c4ccsc4)cc3n2)cn1` [Example 17, 5-(4-morpholino-7-(thiophen-3-yl)-quinazolin-2-yl)-pyrimidin-2-amine]: the half-inhibitory concentration (IC50) (usually the midpoint of a concentration-inhibition curve) against mTOR kinase lay within 50 to 200 nM. Take `CS(=O)(=O)c1cncc(-c2ccc3c(N4CCOCC4)nc(-c4cnc(N)nc4)nc3c2)c1` [Example 18, 5-(7-(5-(methyl-sulfonyl)pyridin-3-yl)-4-morpholinoquinazolin-2-yl)pyrimidin-2-amine]: the half-maximal inhibitory concentration (IC50) against PI3Kα (wild-type) and against mTOR kinase was 201 to 10000 nM in each case. For `Nc1ncc(-c2nc(N3CCOCC3)c3ccc(-c4cccnc4F)cc3n2)cn1` [Example 19, 5-(7-(2-fluoropyridin-3-yl)-4-morpholino-quinazolin-2-yl)-pyrimidin-2-amine], the IC50 at PI3Kα (wild-type) and against mTOR kinase was greater than 1000 nM throughout.

Regarding `CC(=O)N(C)c1cccc(-c2cnc3c(N4CCOCC4)nc(-c4cnc(N)nc4)nc3c2)c1` [Example 27, N-(3-(2-(2-amino-pyrimidin-5-yl)-4-morpholinopyrido[3,2-d]-pyrimidin-7-yl)phenyl)-N-methylacetamide], the half-inhibitory concentration (IC50) against PI3Kα (wild-type) and against mTOR kinase was 50 to 200 nM throughout.

As to `CC(=O)Nc1cncc(-c2cnc3c(N4CCOCC4)nc(-c4cnc(N)nc4)nc3c2)c1` [Example 30, N-(5-(2-(2-amino-pyrimidin-5-yl)-4-morpholinopyrido[3,2-d]pyrimidin-7-yl)pyridin-3-yl)acetamide], the half-inhibitory concentration (IC50) at PI3Kα (wild-type) is less than 50 nM; against mTOR kinase, 201 to 10000 nM. On to `Nc1ncc(-c2nc(N3CCOCC3)c3ncc(-c4ccc(NC(=O)C5CC5)cc4F)cc3n2)cn1` [Example 32, N-(4-(2-(2-amino-pyrimidin-5-yl)-4-morpholinopyrido[3,2-d]pyrimidin-7-yl)-3-fluorophenyl)cyclo-propanecarboxamide], for which the IC50 was less than 50 nM at PI3Kα (wild-type) and 50 to 200 nM against mTOR kinase. Consider `CS(=O)(=O)N1CCN(C(=O)c2cccc(-c3cnc4c(N5CCOCC5)nc(-c5cnc(N)nc5)nc4c3)c2)CC1` [Example 36, (3-(2-(2-aminopyrimidin-5-yl)-4-morpholino-pyrido[3,2-d]pyrimidin-7-yl)phenyl)(4-(methyl-sulfonyl)piperazin-1-yl)-methanone], for which the concentration for half-maximal inhibition (IC50) at PI3Kα (wild-type) is less than 50 nM.

On to `CN(C)C(=O)c1cccc(-c2cnc3c(N4CCOCC4)nc(-c4cnc(N)nc4)nc3c2)c1` [Example 41, 3-(2-(2-aminopyrimidin-5-yl)-4-morpholinopyrido[3,2-d]pyrimidin-7-yl)-N,N-dimethylbenzamide], for which the IC50 against PI3Kα (wild-type) was less than 50 nM; against mTOR kinase, 50 to 200 nM. Taken in the same sequence, the figures for `CN(C)CC(=O)Nc1cccc(-c2ccc3c(N4CCOCC4)nc(-c4cnc(N)nc4)nc3c2)c1` [Example 42, N-(3-(2-(2-amino-pyrimidin-5-yl)-4-morpholinoquinazolin-7-yl)phenyl)-2-(dimethylamino)-acetamide] were 201 to 10000 nM and 50 to 200 nM. Taken in the same sequence, the figures for `CC(O)C(=O)Nc1cccc(-c2ccc3c(N4CCOCC4)nc(-c4cnc(N)nc4)nc3c2)c1` (stereo not drawn) [Example 43, N-(3-(2-(2-amino-pyrimidin-5-yl)-4-morpholinoquinazolin-7-yl)phenyl)-2-hydroxy-propanamide] were 201 to 10000 nM and less than 50 nM. The corresponding values for `C[C@H](O)C(=O)Nc1cccc(-c2ccc3c(N4CCOCC4)nc(-c4cnc(N)nc4)nc3c2)c1` [Example 44] are 50 to 200 nM and 201 to 10000 nM. Take `Nc1ncc(-c2nc(N3CCOCC3)c3ncc(-c4ccc(NC(=O)C5CC5)cc4)cc3n2)cn1` [Example 62, N-(4-(2-(2-amino-pyrimidin-5-yl)-4-morpholinopyrido[3,2-d]pyrimidin-7-yl)-phenyl)cyclopropane-carboxamide]: the half-inhibitory concentration (IC50) was less than 50 nM against PI3Kα (wild-type) and 50 to 200 nM on mTOR kinase.

Regarding `Nc1ncc(-c2nc(N3CCOCC3)c3ncc(-c4cccc(NC(=O)C5CCOCC5)c4)cc3n2)cn1` [Example 63, N-(3-(2-(2-amino-pyrimidin-5-yl)-4-morpholinopyrido[3,2-d]pyrimidin-7-yl)-phenyl)tetrahydro-2H-pyran-4-carboxamide], the IC50 against PI3Kα (wild-type) and at mTOR kinase was less than 50 nM each time.

`Nc1ncc(-c2nc(N3CCOCC3)c3ncc(-c4cccc(NC(=O)c5csnn5)c4)cc3n2)cn1` [Example 69, N-(3-(2-(2-amino-pyrimidin-5-yl)-4-morpholinopyrido[3,2-d]pyrimidin-7-yl)phenyl)-1,2,3-thiadiazole-4-carboxamide] gave an IC50 on PI3Kα (wild-type) of less than 50 nM. For the molecule `Nc1ncc(-c2nc(N3CCOCC3)c3ncc(-c4cc(NC(=O)c5cccnc5)ccc4F)cc3n2)cn1` [Example 71, N-(3-(2-(2-amino-pyrimidin-5-yl)-4-morpholinopyrido[3,2-d]-pyrimidin-7-yl)-4-fluoro-phenyl)nicotinamide], the half-inhibitory concentration (IC50) against PI3Kα (wild-type) and on mTOR kinase was less than 50 nM each time. For `Cc1ccc(C(=O)Nc2ccc(F)c(-c3cnc4c(N5CCOCC5)nc(-c5cnc(N)nc5)nc4c3)c2)o1` [Example 72, N-(3-(2-(2-amino-pyrimidin-5-yl)-4-morpholinopyrido[3,2-d]pyrimidin-7-yl)-4-fluorophenyl)-5-methylfuran-2-carboxamide], the IC50 at PI3Kα (wild-type) is less than 50 nM.

On PI3Kα (wild-type), `Cc1ccc(C(=O)Nc2ccc(-c3cnc4c(N5CCOCC5)nc(-c5cnc(N)nc5)nc4c3)cc2)o1` [Example 73, N-(4-(2-(2-amino-pyrimidin-5-yl)-4-morpholinopyrido[3,2-d]pyrimidin-7-yl)phenyl)-5-methylfuran-2-carboxamide] displayed an IC50 of less than 50 nM. Same read-out and setting: the figure for `Nc1ncc(-c2nc(N3CCOCC3)c3ncc(-c4cccc(NC(=O)c5ccc(F)cc5)c4)cc3n2)cn1` [Example 74, N-(3-(2-(2-amino-pyrimidin-5-yl)-4-morpholinopyrido[3,2-d]pyrimidin-7-yl)phenyl)-4-fluorobenzamide] is less than 50 nM; for `Nc1ncc(-c2nc(N3CCOCC3)c3ncc(-c4ccc(NC(=O)C5CCC5)cc4)cc3n2)cn1` [Example 78, N-(4-(2-(2-amino-pyrimidin-5-yl)-4-morpholinopyrido[3,2-d]pyrimidin-7-yl)-phenyl)cyclobutane-carboxamide] it is less than 50 nM; for `Nc1ncc(-c2nc(N3CCOCC3)c3ncc(-c4ccc(NC(=O)c5ccco5)cc4)cc3n2)cn1` [Example 79, N-(4-(2-(2-amino-pyrimidin-5-yl)-4-morpholinopyrido[3,2-d]pyrimidin-7-yl)-phenyl)furan-2-carboxamide] it is less than 50 nM. The same measure, in the same setting: the figure for `CC(C)(C#N)C(=O)N1CCN(c2cccc(-c3cnc4c(N5CCOCC5)nc(-c5cnc(N)nc5)nc4c3)c2)CC1` [Example 107, 3-(4-(3-(2-(2-amino-pyrimidin-5-yl)-4-morpholinopyrido[3,2-d]-pyrimidin-7-yl)-phenyl)piperazin-1-yl)-2,2-dimethyl-3-oxopropanenitrile] is less than 50 nM.
